What was measured:
[1] = target: Sodium-dependent serotonin transporter (Rattus norvegicus, UniProt P31652)
[2] = target: Sodium-dependent dopamine transporter (Rattus norvegicus, UniProt P23977)
Sequence of Sodium-dependent dopamine transporter (P23977 whole entry): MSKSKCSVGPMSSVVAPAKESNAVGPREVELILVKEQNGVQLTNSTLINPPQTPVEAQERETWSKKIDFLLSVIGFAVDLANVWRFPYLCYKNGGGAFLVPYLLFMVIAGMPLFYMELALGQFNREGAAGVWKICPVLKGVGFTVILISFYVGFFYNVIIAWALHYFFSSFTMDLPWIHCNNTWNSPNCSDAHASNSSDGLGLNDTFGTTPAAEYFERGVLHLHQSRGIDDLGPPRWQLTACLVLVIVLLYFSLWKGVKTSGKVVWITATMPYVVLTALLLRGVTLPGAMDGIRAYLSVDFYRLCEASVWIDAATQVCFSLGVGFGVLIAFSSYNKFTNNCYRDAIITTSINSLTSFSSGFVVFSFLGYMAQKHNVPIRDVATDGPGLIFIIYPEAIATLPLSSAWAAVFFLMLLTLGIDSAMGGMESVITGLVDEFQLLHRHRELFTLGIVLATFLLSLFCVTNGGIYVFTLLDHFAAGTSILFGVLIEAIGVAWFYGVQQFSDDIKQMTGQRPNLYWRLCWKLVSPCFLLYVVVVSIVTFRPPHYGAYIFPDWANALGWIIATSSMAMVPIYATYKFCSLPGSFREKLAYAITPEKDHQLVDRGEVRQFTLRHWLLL

Sequence of Sodium-dependent serotonin transporter (P31652 whole entry): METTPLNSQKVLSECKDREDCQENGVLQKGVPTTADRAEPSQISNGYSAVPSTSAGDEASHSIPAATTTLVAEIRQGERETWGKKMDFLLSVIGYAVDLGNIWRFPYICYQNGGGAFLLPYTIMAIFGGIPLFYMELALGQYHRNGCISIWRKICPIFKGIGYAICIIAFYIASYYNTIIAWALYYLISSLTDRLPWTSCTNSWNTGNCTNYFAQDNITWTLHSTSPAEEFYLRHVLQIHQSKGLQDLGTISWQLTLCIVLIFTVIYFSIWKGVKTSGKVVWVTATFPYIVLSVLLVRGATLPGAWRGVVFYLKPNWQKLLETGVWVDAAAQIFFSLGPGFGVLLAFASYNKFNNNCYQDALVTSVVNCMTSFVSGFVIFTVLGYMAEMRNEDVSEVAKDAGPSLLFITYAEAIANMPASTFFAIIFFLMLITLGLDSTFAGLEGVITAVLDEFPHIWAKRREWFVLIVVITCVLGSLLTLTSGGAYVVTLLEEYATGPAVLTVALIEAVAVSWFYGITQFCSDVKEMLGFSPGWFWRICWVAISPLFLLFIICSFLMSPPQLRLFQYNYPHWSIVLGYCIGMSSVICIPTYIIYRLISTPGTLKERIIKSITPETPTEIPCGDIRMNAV

COC(=O)[C@H](c1ccccc1)[C@@H]1CCCCN1 [TMP]
Ki [1]: > 10 µM

CCCCN1CCCC[C@H]1[C@H](COC)c1ccccc1 [TROMeNBn]
Ki [2]: 0.0178 µM | Ki [1]: 0.166 µM

COC(=O)[C@H](c1ccc(Cl)c(Cl)c1)[C@@H]1CCCCN1 [3,4CTMP]
Ki [2]: 0.0053 µM

COC(=O)[C@H](c1ccc(C)cc1)[C@@H]1CCCCN1 [4MeTMP]
Ki [2]: 0.033 µM | Ki [1]: > 10 µM

COC(=O)[C@H](c1ccccc1)[C@@H]1CCCCN1C [TMPNMe]
Ki [2]: 0.499 µM | Ki [1]: > 10 µM

COC(=O)[C@H](c1ccc(C)cc1)[C@@H]1CCCCN1C [4MeTMPNMe]
Ki [2]: 0.14 µM | Ki [1]: 1.11 µM

COC(=O)[C@H](c1cccc(Cl)c1)[C@@H]1CCCCN1C [3CTMPNMe]
Ki [2]: 0.16 µM | Ki [1]: > 10 µM

COC(=O)[C@H](c1ccc(F)cc1)[C@@H]1CCCCN1 [4FTMP]
Ki [2]: 0.035 µM | Ki [1]: > 10 µM

COC(=O)[C@H](c1ccc(N)cc1)[C@@H]1CCCCN1 [4ATMP]
Ki [2]: 0.0345 µM | Ki [1]: > 10 µM

CCCCN1CCCC[C@H]1[C@H](CO)c1ccccc1 [TROHNBn]
Ki [2]: 0.0237 µM | Ki [1]: 0.204 µM

COC(=O)[C@H](c1cccc(Cl)c1)[C@@H]1CCCCN1 [3CTMP]
Ki [2]: 0.0051 µM | Ki [1]: > 10 µM

— BindingDB's records for doi:10.1124/jpet.301.2.527 (Mercer University, 2002)
